The subject of this assay is rat lens. Description: Lens protein content in peptide-treated rat lenses. Format: cell-based, Wistar rat. The conditions noted are these: 10 µM peptide, 96 h. The protocol:
Eyes were enucleated from 4 months old Wistar rats, obtained from National Center for Laboratory Animal Services, National Institute of Nutrition, Hyderabad immediately after sacrifice by cervical dislocation. Animal care and protocols were in accordance with and approved by Institutional Animal Ethics Committee. Lenses were dissected from the eyes by anterior approach. Each isolated lens was incubated in 2 ml of modified of TC-199 (Sigma) medium with antibiotics. Osmolarity of the medium was adjusted to 295 milli osmomoles using an osmometer (Micro Osmometer; Model-210, Fiske Associates, Norwood, MA, USA). Lenses were cultured as described previously, [33]. Lenses were incubated at 37°C under 95% air and 5% CO2 in the absence or presence of the various dementia associated peptides dissolved in DMSO for a period of 96 h. All the reagents/chemicals used for lens organ culture were filtered through 0.2 µm Millipore disc filters. Final concentration of a given dementia associated peptides in the culture medium was kept at 10 µM. Medium was changed every 24 h. At the end of incubation, lenses were kept on a grid (12/cm) for assessing the transparency by placing them above a light source.
Lenses were homogenized in 10 vol. of 0.05 M Tris buffer (pH 8.0), containing 0.1 M NaCl and 0.02% sodium azide. The homogenate was centrifuged at 15 000 g for 30 min at 4°C and the resulting supernatant was collected (soluble fraction). The pellet was washed thrice and constituted in the same buffer (insoluble fraction). Protein content in soluble and insoluble fractions was estimated by Lowry's method.

Consider “Aβ (1–42): column label of Table 1; text gives the same value for Aβ-40”, for which the Insoluble protein (15 000 g pellet, Lowry's method, Control 95) is 145 mg/g lens. The same substance displayed a Soluble protein (15 000 g supernatant, Lowry's method, Control 421) of 310 mg/g lens. The Total protein (Lowry's method, Control 518) stood at 464 mg/g lens. For the same substance, the “% Soluble protein” value (in relation to the amount of total protein, Control 81) is on record as 67%.
